Patent publication US4582845A, “Pharmaceutical composition for injection” (Sumitomo Pharmaceuticals Co., Ltd., priority 1980, dated 1986)
In brackets after ≈: the same amount, converted by molar mass.

Experiments:
Assay type in all cases: physicochemical
[1] = Solubility in water; details: 25° C., as free base form
[2] = Solubility in solutions of basic substances (Experimental Example 7)
Experimental: (§1) Excess amounts of the Compound A were dispersed in aqueous solutions containing various surfactants and additives, respectively. In each case, the solubility of the compound was determined by measuring the light absorbance at 277 nm with the filtrate. For non-aqueous vehicles marked with *, the corresponding solubility of the compound was judged by eye-measurement.
Using the same procedures as stated in Experimental Example 6, solubility measurements were carried out.

[3] = Solubility in aqueous solutions of surfactants/additives and non-aqueous vehicles (Experimental Example 6)
Experimental: as §1

[4] = Coloration of Compound A on exposure to oxygen, heat or light

solubility [1]: ~4700 µg/mL (≈ 37 mM)
solubility ([2]; pH 8.2, 5% L-lysine, pH of solvent 8.20): 10700 µg/mL (≈ 84.2 mM)
solubility ([2]; pH 8.42, aqueous buffer, NaHCO3-Na2CO3 buffer, pH of solvent 8.42): 26700 µg/mL (≈ 210 mM)
solubility ([2]; pH 8.44, 5% borax, pH of solvent 8.44): 22200 µg/mL (≈ 175 mM)
solubility ([2]; pH 8.5, 0.5% NaOH, pH of solvent 8.50): 21400 µg/mL (≈ 168 mM)
solubility ([2]; pH 8.56, 5% trishydroxy methylamino methane, pH of solvent 8.56): 25700 µg/mL (≈ 202 mM)
solubility ([2]; pH 8.64, 1% ethanolamine, pH of solvent 8.64): 24900 µg/mL (≈ 196 mM)
solubility ([2]; pH 8.69, 5% L-arginine, pH of solvent 8.69): 33500 µg/mL (≈ 264 mM)
solubility ([3]; 5% amycol no. 1): 5100 µg/mL (≈ 40.1 mM)
solubility ([3]; 5% ethylurea): 5600 µg/mL (≈ 44.1 mM)
solubility ([3]; 5% levulinic acid): 6300 µg/mL (≈ 49.6 mM)
solubility ([3]; 5% nicotinic amide): 7200 µg/mL (≈ 56.6 mM)
solubility ([3]; 5% polyoxyethylene hydrogenated castor oil, organic solvent or mixture): 4500 µg/mL (≈ 35.4 mM)
solubility ([3]; 5% polyoxyethylene sorbitan monooleate): 4600 µg/mL (≈ 36.2 mM)
solubility ([3]; 5% sodium lauryl sulfate): 4700 µg/mL (≈ 37 mM)
solubility ([3]; 5% sodium salicylate): 6500 µg/mL (≈ 51.1 mM)
solubility ([3]; 5% tartaric acid): 7000 µg/mL (≈ 55.1 mM)
solubility ([3]; 10% mannitol): 4600 µg/mL (≈ 36.2 mM)
Solubility (in words) ([3]; 10% sodium deoxycholate): white gel
solubility ([3]; corn oil, organic solvent or mixture): < 2000 µg/mL
solubility ([3]; cotton seed oil, organic solvent or mixture): < 2000 µg/mL
solubility ([3]; ethanol, organic solvent or mixture): < 2000 µg/mL
solubility ([3]; glycerine, organic solvent or mixture): ~3000 µg/mL (≈ 23.6 mM)
solubility ([3]; n,n-dimethylacetamide, organic solvent or mixture): < 2000 µg/mL
solubility ([3]; polyethylene glycol, organic solvent or mixture): < 2000 µg/mL
solubility ([3]; propylene glycol, organic solvent or mixture): ~5000 µg/mL (≈ 39.3 mM)
solubility ([3]; saturated aspartic acid): 5400 µg/mL (≈ 42.5 mM)
Solubility (in words) ([3]; saturated gentisic acid): white gel
solubility ([3]; saturated glutamic acid): 5300 µg/mL (≈ 41.7 mM)
solubility ([3]; sesame oil, organic solvent or mixture): < 2000 µg/mL
solubility ([3]; water): 4700 µg/mL (≈ 37 mM)
SMILES: NC(=O)c1nc[nH]c1O [Compound A, 4-carbamoyl-5-hydroxyimidazole]
coloration / instability [4]: so unstable that it is easily colored upon exposure to oxygen, heat, or light
